ChEMBL document CHEMBL5291721, “A preclinical secondary pharmacology resource illuminates target-adverse drug reaction associations of marketed drugs” (Nat Commun, 2023)

Key:
Histamine H1 receptor [1] = target: T1, Histamine H1 receptor (Homo sapiens, UniProt P35367); format: functional, cell-based
Histamine H1 receptor [2] = target: T1, Histamine H1 receptor; format: functional, cell-based; remark: listed apart in the source
Estrogen receptor beta = Estrogen receptor beta (Homo sapiens, UniProt Q92731)
[3] = target: T2, Muscarinic acetylcholine receptor M1 (Homo sapiens, UniProt P11229); format: functional
T2 sequence (P11229 whole entry): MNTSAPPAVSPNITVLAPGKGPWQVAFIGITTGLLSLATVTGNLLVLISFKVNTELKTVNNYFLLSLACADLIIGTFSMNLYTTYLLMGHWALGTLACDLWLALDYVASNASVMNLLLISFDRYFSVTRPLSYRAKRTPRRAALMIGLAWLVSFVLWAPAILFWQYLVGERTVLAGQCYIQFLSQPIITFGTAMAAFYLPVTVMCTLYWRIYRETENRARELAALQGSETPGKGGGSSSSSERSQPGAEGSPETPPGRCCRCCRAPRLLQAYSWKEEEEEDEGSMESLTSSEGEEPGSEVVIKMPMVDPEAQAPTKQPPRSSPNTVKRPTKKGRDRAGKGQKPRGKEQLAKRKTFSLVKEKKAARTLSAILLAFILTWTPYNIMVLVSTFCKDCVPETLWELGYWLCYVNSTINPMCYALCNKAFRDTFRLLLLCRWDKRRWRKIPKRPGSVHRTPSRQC

[4] = target: T3, Alpha-1A adrenergic receptor (Homo sapiens, UniProt P35348)
T3 sequence (P35348 whole entry): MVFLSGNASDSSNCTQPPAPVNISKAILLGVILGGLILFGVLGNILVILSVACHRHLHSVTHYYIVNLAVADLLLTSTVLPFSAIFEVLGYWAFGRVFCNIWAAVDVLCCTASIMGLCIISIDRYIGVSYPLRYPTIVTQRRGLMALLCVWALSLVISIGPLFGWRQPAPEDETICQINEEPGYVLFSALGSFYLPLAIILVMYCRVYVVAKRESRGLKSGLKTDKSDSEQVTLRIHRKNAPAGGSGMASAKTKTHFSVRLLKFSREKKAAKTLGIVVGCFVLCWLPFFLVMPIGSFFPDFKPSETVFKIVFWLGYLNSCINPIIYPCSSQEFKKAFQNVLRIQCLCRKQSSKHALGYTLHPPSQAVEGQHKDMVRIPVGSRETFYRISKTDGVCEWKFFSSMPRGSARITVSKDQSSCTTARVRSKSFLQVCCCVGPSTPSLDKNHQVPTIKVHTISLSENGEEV

[5] = target: 5-hydroxytryptamine receptor 7 (Homo sapiens, UniProt P34969)
[6] = target: 5-hydroxytryptamine receptor 6 (Homo sapiens, UniProt P50406)
Cannabinoid receptor 1 = Cannabinoid receptor 1 (Homo sapiens, UniProt P21554); format: functional
[7] = target: Gamma-aminobutyric acid type B receptor subunit 1 (Homo sapiens, UniProt Q9UBS5)
[8] = target: T3, Alpha-1A adrenergic receptor; remark: listed apart in the source
D(1A) dopamine receptor = D(1A) dopamine receptor (Homo sapiens, UniProt P21728)
Also: assay procedure not described here.

T1 sequence (P35367 whole entry): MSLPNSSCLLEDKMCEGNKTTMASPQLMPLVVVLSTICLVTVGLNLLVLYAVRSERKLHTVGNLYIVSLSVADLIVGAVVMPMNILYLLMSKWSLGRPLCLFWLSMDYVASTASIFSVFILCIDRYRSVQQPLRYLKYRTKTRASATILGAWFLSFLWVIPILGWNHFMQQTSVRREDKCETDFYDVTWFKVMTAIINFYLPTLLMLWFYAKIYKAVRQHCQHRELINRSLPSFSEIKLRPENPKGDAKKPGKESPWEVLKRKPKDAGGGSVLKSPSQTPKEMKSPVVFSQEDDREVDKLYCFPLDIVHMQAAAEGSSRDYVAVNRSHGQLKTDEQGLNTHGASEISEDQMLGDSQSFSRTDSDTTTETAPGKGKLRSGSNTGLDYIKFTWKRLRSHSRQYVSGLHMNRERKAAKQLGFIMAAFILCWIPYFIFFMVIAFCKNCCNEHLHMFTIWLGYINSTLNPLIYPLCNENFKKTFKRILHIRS
Chain of 5-hydroxytryptamine receptor 6 (P50406 whole entry): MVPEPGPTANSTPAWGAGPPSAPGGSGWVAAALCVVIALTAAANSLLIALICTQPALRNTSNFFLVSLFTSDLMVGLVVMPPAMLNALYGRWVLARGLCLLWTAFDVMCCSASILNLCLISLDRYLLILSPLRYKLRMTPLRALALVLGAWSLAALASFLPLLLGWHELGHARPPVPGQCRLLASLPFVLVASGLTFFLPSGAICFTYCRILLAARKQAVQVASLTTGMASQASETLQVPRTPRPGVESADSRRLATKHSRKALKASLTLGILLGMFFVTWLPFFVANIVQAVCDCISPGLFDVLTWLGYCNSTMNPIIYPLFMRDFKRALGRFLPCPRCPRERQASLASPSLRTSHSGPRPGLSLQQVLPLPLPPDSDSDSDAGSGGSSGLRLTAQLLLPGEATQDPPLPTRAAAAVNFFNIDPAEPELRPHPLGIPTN
Chain of D(1A) dopamine receptor (P21728 whole entry): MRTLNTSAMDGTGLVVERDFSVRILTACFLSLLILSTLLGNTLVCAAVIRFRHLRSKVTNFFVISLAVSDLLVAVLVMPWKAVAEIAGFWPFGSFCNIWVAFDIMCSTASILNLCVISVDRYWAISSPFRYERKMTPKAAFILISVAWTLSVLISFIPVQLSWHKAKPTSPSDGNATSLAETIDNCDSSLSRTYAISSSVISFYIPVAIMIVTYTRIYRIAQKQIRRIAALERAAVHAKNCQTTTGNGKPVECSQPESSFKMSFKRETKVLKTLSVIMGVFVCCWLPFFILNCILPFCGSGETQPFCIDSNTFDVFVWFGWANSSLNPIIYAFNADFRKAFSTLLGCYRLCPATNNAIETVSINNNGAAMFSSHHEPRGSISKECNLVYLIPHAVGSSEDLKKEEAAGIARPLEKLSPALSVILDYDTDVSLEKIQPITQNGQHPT
Chain of Estrogen receptor beta (Q92731 whole entry): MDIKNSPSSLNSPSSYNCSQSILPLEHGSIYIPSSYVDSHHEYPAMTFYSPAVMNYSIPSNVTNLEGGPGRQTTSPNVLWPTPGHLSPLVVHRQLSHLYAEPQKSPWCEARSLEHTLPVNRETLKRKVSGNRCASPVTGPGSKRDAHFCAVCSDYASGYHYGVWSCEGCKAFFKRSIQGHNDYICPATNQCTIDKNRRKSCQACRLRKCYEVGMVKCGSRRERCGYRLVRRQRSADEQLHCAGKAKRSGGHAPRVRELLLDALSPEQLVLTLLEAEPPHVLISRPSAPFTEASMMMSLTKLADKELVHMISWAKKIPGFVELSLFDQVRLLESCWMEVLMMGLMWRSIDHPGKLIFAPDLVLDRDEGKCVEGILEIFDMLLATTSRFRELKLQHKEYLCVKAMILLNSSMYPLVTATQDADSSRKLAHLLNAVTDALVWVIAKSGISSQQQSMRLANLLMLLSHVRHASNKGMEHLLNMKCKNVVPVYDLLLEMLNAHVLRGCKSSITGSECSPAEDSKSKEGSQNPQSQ
Chain of 5-hydroxytryptamine receptor 7 (P34969 whole entry): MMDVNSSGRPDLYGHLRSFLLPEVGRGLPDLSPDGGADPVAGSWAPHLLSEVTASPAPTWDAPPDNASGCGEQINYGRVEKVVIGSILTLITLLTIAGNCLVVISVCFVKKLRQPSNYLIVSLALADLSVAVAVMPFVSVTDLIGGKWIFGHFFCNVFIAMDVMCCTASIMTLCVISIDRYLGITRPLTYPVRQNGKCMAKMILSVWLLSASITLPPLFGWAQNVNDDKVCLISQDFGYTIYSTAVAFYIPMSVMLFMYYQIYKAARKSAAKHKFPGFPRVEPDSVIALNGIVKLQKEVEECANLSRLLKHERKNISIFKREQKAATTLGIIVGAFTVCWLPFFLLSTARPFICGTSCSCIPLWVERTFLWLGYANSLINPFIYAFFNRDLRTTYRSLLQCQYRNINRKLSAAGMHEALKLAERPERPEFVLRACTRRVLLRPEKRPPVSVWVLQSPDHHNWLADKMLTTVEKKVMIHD
Chain of Cannabinoid receptor 1 (P21554 whole entry): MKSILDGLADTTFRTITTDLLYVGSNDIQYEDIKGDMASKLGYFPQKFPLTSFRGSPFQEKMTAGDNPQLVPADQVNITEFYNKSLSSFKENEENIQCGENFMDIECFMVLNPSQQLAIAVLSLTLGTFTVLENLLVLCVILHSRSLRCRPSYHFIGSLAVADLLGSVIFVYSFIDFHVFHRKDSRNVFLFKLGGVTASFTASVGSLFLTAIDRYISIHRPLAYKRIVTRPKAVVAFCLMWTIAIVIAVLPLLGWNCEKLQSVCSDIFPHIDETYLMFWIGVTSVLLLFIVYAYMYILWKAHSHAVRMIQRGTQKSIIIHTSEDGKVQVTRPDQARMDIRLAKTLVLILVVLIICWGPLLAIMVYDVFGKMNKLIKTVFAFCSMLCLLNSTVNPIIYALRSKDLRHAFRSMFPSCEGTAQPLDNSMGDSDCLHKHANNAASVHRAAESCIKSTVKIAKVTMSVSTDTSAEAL
Chain of Gamma-aminobutyric acid type B receptor subunit 1 (Q9UBS5 whole entry): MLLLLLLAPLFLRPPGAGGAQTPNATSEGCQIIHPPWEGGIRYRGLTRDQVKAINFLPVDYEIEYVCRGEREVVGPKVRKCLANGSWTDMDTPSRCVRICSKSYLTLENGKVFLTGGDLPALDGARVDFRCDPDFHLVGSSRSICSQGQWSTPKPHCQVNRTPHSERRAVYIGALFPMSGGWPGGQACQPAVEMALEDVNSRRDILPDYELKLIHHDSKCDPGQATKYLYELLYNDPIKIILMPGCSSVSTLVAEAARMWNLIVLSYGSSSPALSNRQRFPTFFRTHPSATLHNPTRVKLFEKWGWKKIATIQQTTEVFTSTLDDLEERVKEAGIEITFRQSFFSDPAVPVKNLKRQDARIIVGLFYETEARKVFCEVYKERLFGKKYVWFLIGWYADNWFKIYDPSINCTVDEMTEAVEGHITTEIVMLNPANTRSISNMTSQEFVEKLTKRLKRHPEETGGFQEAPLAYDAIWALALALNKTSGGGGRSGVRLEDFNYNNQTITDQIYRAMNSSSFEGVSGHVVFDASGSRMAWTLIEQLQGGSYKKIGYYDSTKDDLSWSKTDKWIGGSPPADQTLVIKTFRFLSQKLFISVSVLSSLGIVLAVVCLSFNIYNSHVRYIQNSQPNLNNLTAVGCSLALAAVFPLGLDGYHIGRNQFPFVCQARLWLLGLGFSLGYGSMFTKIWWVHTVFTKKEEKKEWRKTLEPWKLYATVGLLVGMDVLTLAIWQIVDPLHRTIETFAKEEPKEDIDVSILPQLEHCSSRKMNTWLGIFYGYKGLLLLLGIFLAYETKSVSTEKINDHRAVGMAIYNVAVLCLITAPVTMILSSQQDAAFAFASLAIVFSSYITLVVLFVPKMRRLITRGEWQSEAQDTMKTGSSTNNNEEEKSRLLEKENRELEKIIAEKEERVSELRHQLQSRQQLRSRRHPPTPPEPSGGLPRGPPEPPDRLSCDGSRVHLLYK

| Compound | AC50 (Estrogen receptor beta) [µM] | AC50 [3] [µM] | AC50 [4] [µM] | AC50 [5] [µM] | AC50 [6] [µM] | AC50 (Cannabinoid receptor 1) [µM] | other results |
| --- | --- | --- | --- | --- | --- | --- | --- |
| CC(C)N(CCC(C(N)=O)(c1ccccc1)c1ccccn1)C(C)C (stereo not given) [DISOPYRAMIDE] | > 30 | > 10 | – | – | – | – | AC50 (Histamine H1 receptor [1]): > 30 µM; AC50 (Histamine H1 receptor [2]): > 30 µM |
| C[C@]12C=CC(=O)N[C@@H]1CC[C@@H]1[C@@H]2CC[C@]2(C)[C@@H](C(=O)Nc3cc(C(F)(F)F)ccc3C(F)(F)F)CC[C@@H]12 [DUTASTERIDE] | – | > 10 | – | – | – | – | – |
| CC(S)C(=O)NCC(=O)O (stereo not given) [TIOPRONIN] | – | > 30 | – | – | – | – | – |
| Nc1ccc(S(=O)(=O)Nc2nccs2)cc1 [SULFATHIAZOLE] | – | – | > 10 | – | – | – | – |
| CO[C@H]1/C=C/O[C@@]2(C)Oc3c(C)c(O)c4c(O)c(c(/C=N/N5CCN(C)CC5)c(O)c4c3C2=O)NC(=O)/C(C)=C\C=C\[C@H](C)[C@H](O)[C@@H](C)[C@@H](O)[C@@H](C)[C@H](OC(C)=O)[C@@H]1C [RIFAMPIN] | > 30 | – | > 10 | > 10 | > 10 | > 10 | – |
| Cc1onc(-c2ccccc2)c1-c1ccc(S(N)(=O)=O)cc1 [VALDECOXIB] | > 30 | – | > 10 | > 10 | > 10 | > 10 | AC50 [7]: > 10 µM |
| C[C@H]1c2cccc(O)c2C(=O)C2=C(O)[C@]3(O)C(=O)C(C(N)=O)=C(O)[C@@H](N(C)C)[C@@H]3[C@@H](O)[C@@H]21 [DOXYCYCLINE] | – | – | > 10 | – | – | – | – |
| COc1ccccc1OCCNCC(O)COc1cccc2[nH]c3ccccc3c12 (stereo not given) [CARVEDILOL] | > 30 | – | 0.0099 | 1.58 | 1.25 | > 10 | AC50 [7]: > 10 µM |
| CN1C(C(=O)Nc2ccccn2)=C(O)c2ccccc2S1(=O)=O [PIROXICAM] | – | – | – | – | – | – | AC50 [8]: > 30 µM; AC50 (D(1A) dopamine receptor): > 30 µM |
| C[C@@H](NCCCc1cccc(C(F)(F)F)c1)c1cccc2ccccc12 | – | 17 | – | – | – | – | AC50 (Histamine H1 receptor [1]): > 30 µM; AC50 (Histamine H1 receptor [2]): > 30 µM |
| CCCN(CCC)C(=O)Cc1c(-c2ccc(Cl)cc2)nc2ccc(Cl)cn12 [ALPIDEM] | – | > 30 | > 10 | > 10 | > 10 | > 10 | AC50 [7]: > 10 µM |
| CC(=O)O[C@]1(C(C)=O)CC[C@H]2[C@@H]3C=C(C)C4=CC(=O)CC[C@@H]4[C@H]3CC[C@@]21C [NOMEGESTROL ACETATE] | – | > 30 | – | – | – | – | – |
| CCCC(CCC)C(=O)O [VALPROIC ACID] | – | – | – | > 10 | > 10 | > 10 | AC50 [7]: > 10 µM |
| C=C[C@H]1C[N@@]2CC[C@H]1C[C@@H]2[C@@H](O)c1ccnc2ccc(OC)cc12 [QUINIDINE] | – | > 10 | – | – | – | – | AC50 (Histamine H1 receptor [1]): > 30 µM; AC50 (Histamine H1 receptor [2]): > 30 µM |
| CN(C)CCc1c[nH]c2ccc(Cn3cncn3)cc12 [RIZATRIPTAN] | > 30 | > 30 | > 10 | > 10 | > 10 | > 10 | AC50 (Histamine H1 receptor [1]): > 30 µM; AC50 (Histamine H1 receptor [2]): 20 µM; AC50 [7]: > 10 µM |
| OC[C@@H](O)[C@@H](O)[C@H](O)[C@@H](O)CO [SORBITOL] | – | – | – | – | – | – | AC50 [8]: > 30 µM; AC50 (D(1A) dopamine receptor): > 30 µM |
| COc1ccc(CC2c3cc(OC)c(OC)cc3CC[N+]2(C)CCC(=O)OCCCCCOC(=O)CC[N+]2(C)CCc3cc(OC)c(OC)cc3C2Cc2ccc(OC)c(OC)c2)cc1OC (stereo not given) | – | > 30 | – | – | – | – | – |
| O=C(O)CO [GLYCOLIC ACID] | – | – | – | – | – | – | AC50 [8]: > 30 µM; AC50 (D(1A) dopamine receptor): > 30 µM |
| COc1cc2nc(N3CCN(C(=O)C4CCCO4)CC3)nc(N)c2cc1OC (stereo not given) [TERAZOSIN] | > 30 | – | – | – | – | – | – |
| O=C1CN(/N=C/c2ccc(-c3ccc([N+](=O)[O-])cc3)o2)C(O)=N1 [DANTROLENE] | – | > 10 | – | – | – | – | – |
